Calls of active or inactive are those of the source. The rule behind the calls is not given here.
Tested on: CCRIS mutagenicity, Ames/micronucleus/aberration tests
Assay: CCRIS mutagenicity studies

O=c1c2ccccc2c(=O)c2c1cc(Cl)c1[nH]c3c([nH]c12)c(Cl)cc1c(=O)c2ccccc2c(=O)c13
mutagenic call (Test System: Ames Salmonella typhimurium, Strain/Indicator: TA98, Metabolic Activation: None, Method: Preincubation): active; positive | mutagenic call (Test System: Ames Salmonella typhimurium, Strain/Indicator: TA100, Metabolic Activation: None, Method: Preincubation): inactive; negative | mutagenic call (Test System: Ames Salmonella typhimurium, Strain/Indicator: TA102, Metabolic Activation: None, Method: Preincubation): inactive; negative | mutagenic call (Test System: Ames Salmonella typhimurium, Strain/Indicator: TA1535, Metabolic Activation: None, Method: Preincubation): inactive; negative

CCN(Cc1cccc(S(=O)(=O)O)c1)c1ccc(C(=C2C=CC(=[N+](CC)Cc3cccc(S(=O)(=O)[O-])c3)C=C2)c2ccc(S(=O)(=O)O)cc2)cc1
mutagenic call (Test System: AMES SALMONELLA TYPHIMURIUM, Strain/Indicator: TA98, Metabolic Activation: HAMSTER, LIVER, S-9, AROCLOR 1254, Method: STANDARD PLATE): active; positive | mutagenic call (Test System: AMES SALMONELLA TYPHIMURIUM, Strain/Indicator: TA98, Metabolic Activation: HAMSTER, LIVER, S-9, Method: PREINCUBATION (PRIVAL METHOD)): active; positive | mutagenic call (Test System: AMES SALMONELLA TYPHIMURIUM, Strain/Indicator: TA100, Metabolic Activation: HAMSTER, LIVER, S-9, Method: PREINCUBATION (PRIVAL METHOD)): active; positive | mutagenic call (Test System: AMES SALMONELLA TYPHIMURIUM, Strain/Indicator: TA1538, Metabolic Activation: HAMSTER, LIVER, S-9, AROCLOR 1254, Method: STANDARD PLATE): active; positive | mutagenic call (Test System: Mouse lymphoma, Strain/Indicator: L5178Y (tk+/tk-), Metabolic Activation: None, Method: Suspension/plate): active; positive | mutagenic call (Test System: Mouse lymphoma, Strain/Indicator: L5178Y (tk+/tk-), Metabolic Activation: Rat, Liver, S-9, Aroclor 1254, Method: Suspension/plate): inactive; negative

Cc1nn(C)c(NC(=O)CNCCCN2CCCCC2C)c1C(=O)c1ccccc1F (stereo not given)
mutagenic call (Test System: AMES SALMONELLA TYPHIMURIUM, Strain/Indicator: TA98, Metabolic Activation: RAT, LIVER, S-9, AROCLOR 1254, Method: PREINCUBATION): active; positive | mutagenic call (Test System: AMES SALMONELLA TYPHIMURIUM, Strain/Indicator: TA98, Metabolic Activation: RAT, LIVER, S-9, AROCLOR 1254, Method: STANDARD PLATE): inactive; negative | mutagenic call (Test System: AMES SALMONELLA TYPHIMURIUM, Strain/Indicator: TA100, Metabolic Activation: RAT, LIVER, S-9, AROCLOR 1254, Method: PREINCUBATION): active; positive | mutagenic call (Test System: AMES SALMONELLA TYPHIMURIUM, Strain/Indicator: TA100, Metabolic Activation: RAT, LIVER, S-9, AROCLOR 1254, Method: STANDARD PLATE): inactive; negative

CC(Cl)Cl
mutagenic call (End Point: IN VIVO CHROMOSOMAL ABERRATIONS, Test System: BONE MARROW, Species: MOUSE, Strain/Sex: SWISS-WEBSTER/MALE, Route: INTRAPERITONEAL): active; positive (structural changes) | mutagenic call (End Point: IN VIVO MICRONUCLEUS, Test System: BONE MARROW, Species: MOUSE, Strain/Sex: SWISS-WEBSTER/MALE, Route: INTRAPERITONEAL): active; positive (dose-dependent) | mutagenic call (Test System: AMES SALMONELLA TYPHIMURIUM, Strain/Indicator: TA97, Metabolic Activation: HAMSTER, LIVER, S-9, AROCLOR 1254 (10%), Method: PREINCUBATION): inactive; negative | mutagenic call (Test System: AMES SALMONELLA TYPHIMURIUM, Strain/Indicator: TA97, Metabolic Activation: HAMSTER, LIVER, S-9, AROCLOR 1254 (30%), Method: PREINCUBATION): inactive; negative | mutagenic call (Test System: AMES SALMONELLA TYPHIMURIUM, Strain/Indicator: TA97, Metabolic Activation: NONE, Method: PREINCUBATION): inactive; negative | mutagenic call (Test System: AMES SALMONELLA TYPHIMURIUM, Strain/Indicator: TA97, Metabolic Activation: RAT, LIVER, S-9, AROCLOR 1254 (10%), Method: PREINCUBATION): inactive; negative | mutagenic call (Test System: AMES SALMONELLA TYPHIMURIUM, Strain/Indicator: TA97, Metabolic Activation: RAT, LIVER, S-9, AROCLOR 1254 (30%), Method: PREINCUBATION): inactive; negative | mutagenic call (Test System: AMES SALMONELLA TYPHIMURIUM, Strain/Indicator: TA98, Metabolic Activation: HAMSTER, LIVER, S-9, AROCLOR 1254 (10%), Method: PREINCUBATION): inactive; negative | mutagenic call (Test System: AMES SALMONELLA TYPHIMURIUM, Strain/Indicator: TA98, Metabolic Activation: HAMSTER, LIVER, S-9, AROCLOR 1254 (30%), Method: PREINCUBATION): inactive; negative | mutagenic call (Test System: AMES SALMONELLA TYPHIMURIUM, Strain/Indicator: TA98, Metabolic Activation: NONE, Method: PREINCUBATION): inactive; negative | mutagenic call (Test System: AMES SALMONELLA TYPHIMURIUM, Strain/Indicator: TA98, Metabolic Activation: RAT, LIVER, S-9, AROCLOR 1254 (10%), Method: PREINCUBATION): inactive; negative | mutagenic call (Test System: AMES SALMONELLA TYPHIMURIUM, Strain/Indicator: TA98, Metabolic Activation: RAT, LIVER, S-9, AROCLOR 1254 (30%), Method: PREINCUBATION): inactive; negative | mutagenic call (Test System: AMES SALMONELLA TYPHIMURIUM, Strain/Indicator: TA100, Metabolic Activation: HAMSTER, LIVER, S-9, AROCLOR 1254 (10%), Method: PREINCUBATION): inactive; negative | mutagenic call (Test System: AMES SALMONELLA TYPHIMURIUM, Strain/Indicator: TA100, Metabolic Activation: HAMSTER, LIVER, S-9, AROCLOR 1254 (30%), Method: PREINCUBATION): inactive; negative | mutagenic call (Test System: AMES SALMONELLA TYPHIMURIUM, Strain/Indicator: TA100, Metabolic Activation: NONE, Method: PREINCUBATION): inactive; negative | mutagenic call (Test System: AMES SALMONELLA TYPHIMURIUM, Strain/Indicator: TA100, Metabolic Activation: RAT, LIVER, S-9, AROCLOR 1254 (10%), Method: PREINCUBATION): inactive; negative | mutagenic call (Test System: AMES SALMONELLA TYPHIMURIUM, Strain/Indicator: TA100, Metabolic Activation: RAT, LIVER, S-9, AROCLOR 1254 (30%), Method: PREINCUBATION): inactive; negative | mutagenic call (Test System: AMES SALMONELLA TYPHIMURIUM, Strain/Indicator: TA1535, Metabolic Activation: HAMSTER, LIVER, S-9, AROCLOR 1254 (10%), Method: PREINCUBATION): inactive; negative | mutagenic call (Test System: AMES SALMONELLA TYPHIMURIUM, Strain/Indicator: TA1535, Metabolic Activation: HAMSTER, LIVER, S-9, AROCLOR 1254 (30%), Method: PREINCUBATION): inactive; negative | mutagenic call (Test System: AMES SALMONELLA TYPHIMURIUM, Strain/Indicator: TA1535, Metabolic Activation: NONE, Method: PREINCUBATION): inactive; negative | mutagenic call (Test System: AMES SALMONELLA TYPHIMURIUM, Strain/Indicator: TA1535, Metabolic Activation: RAT, LIVER, S-9, AROCLOR 1254 (10%), Method: PREINCUBATION): inactive; negative | mutagenic call (Test System: AMES SALMONELLA TYPHIMURIUM, Strain/Indicator: TA1535, Metabolic Activation: RAT, LIVER, S-9, AROCLOR 1254 (30%), Method: PREINCUBATION): inactive; negative | mutagenic call (Test System: AMES SALMONELLA TYPHIMURIUM, Strain/Indicator: TA1537, Metabolic Activation: HAMSTER, LIVER, S-9, AROCLOR 1254 (30%), Method: PREINCUBATION): inactive; negative | mutagenic call (Test System: AMES SALMONELLA TYPHIMURIUM, Strain/Indicator: TA1537, Metabolic Activation: NONE, Method: PREINCUBATION): inactive; negative | mutagenic call (Test System: AMES SALMONELLA TYPHIMURIUM, Strain/Indicator: TA1537, Metabolic Activation: RAT, LIVER, S-9, AROCLOR 1254 (30%), Method: PREINCUBATION): inactive; negative

N#Cc1ccc(CO)cc1
mutagenic call (Test System: AMES SALMONELLA TYPHIMURIUM, Strain/Indicator: TA100, Metabolic Activation: NONE, Method: STANDARD PLATE): inactive; negative

— PubChem BioAssay AID1259407 (Chemical Carcinogenesis Research Information System (CCRIS), 2018)
